{
  "source": "patent US20230132973A1",
  "about": "“DIHYDRO-SPIRO[INDOLINE-3:1'-iSOQUINOLIN]-2-ONES AS ANTIMALARIAL AGENTS” (The University of Buea, priority 2020, published 2023)",
  "format_in_all_cases": "cell-based, Plasmodium falciparum",
  "key": {"[1]": {"system": "multidrug resistant strain Dd2", "experiment": "SYBR green I-based parasite growth inhibition assay, Dd2 strain"}, "[2]": {"system": "asexual blood stages of P. falciparum", "experiment": "Life cycle stage specific action by microscopy of Giemsa-stained thin smears", "settings": "10 μM, 24 h, listed as (±)-moxiquindole", "protocol": "The life cycle stage specific action of (±)-moxiquindole was determined by treatment of parasites at different time points followed by microscopic analysis of Giemsa-stained thin blood smears. Stage proportions were calculated for each asexual parasite stage in the drug treated wells relative to the same stage in the negative control wells.\nThe inhibitory effects of active compounds or reference drugs on parasite development and schizont rupture were determined by quantitative light microscopy as previously described (Lee et al., 2015). Briefly, synchronized cultures (1.5% hematocrit and 3% parasitemia) at different time-points (early rings, mid trophozoites and schizonts) were treated with either test compound or controls at 10 μM final concentration for 24 h under regular culture conditions. Following treatment, Giemsa-stained thin smears were prepared and parasites were counted in 1,000 erythrocytes per treatment. Stage proportions in test wells relative to solvent control wells were calculated and used to assess the in vitro effects of each compound on trophozoites and schizont development as well as merozoite egress and invasion."}, "[3]": {"system": "vacuolar lipid dynamics in P. falciparum", "experiment": "Effect on vacuolar lipid dynamics (Oil Red O staining)", "settings": "trophozoite stage parasites, 24 h", "protocol": "Because cellular vacuolation may result from perturbation of intracellular lipid content, we investigated the effect of (±)-moxiquindole on vacuolar lipid dynamics using fluorescent Oil red O as lipid stain.\nThe effect of the compounds on intracellular lipid dynamics was assessed by measurement of intracellular lipid content using Oil Red O. Briefly, early rings or late trophozoite stage parasites (30 hpi) were treated with the compounds or controls for 24 h under regular culture conditions. Following treatment, inhibitors were removed by centrifugation at 2500 rpm for 5 min and pellets were washed in equal volumes of 1×PBS. The parasites were fixed with 4% paraformaldehyde for 30 min at room temperature and pelleted at 2500. Three volumes of Oil Red O (ORO) stock solution (5 mg/mL in 100% isopropanol) were diluted in two volumes of distilled water and filtered prior to use. About 100 μL of the ORO were added to parasite pellets in the tube and incubated for 30 minutes. Parasites were pelleted and washed twice in distilled water. Thereafter, parasites were deposited on pre-cleaned coverslips and air dried. Dried coverslips were mounted in DAPI antifade reagent onto cleaned slides, air dried and viewed under a 100× oil immersion lens and images acquired using a Leica DM1000 fluorescence microscope suite (LAS version 4.5)."}},
  "note": "pEC50: −log10 of the molar value. “Also recorded” adds a separate entry of the source.",
  "data": [
    {"smiles": "COc1cc2c(cc1OC)C1(NCC2)C(=O)Nc2ccc(Cl)cc21", "note": "(stereo not drawn) [Compound 8b]", "values": [
      {"measurement": "cross-resistance index", "setting": "[1]", "value": 0.935},
      {"measurement": "pEC50", "setting": "[1]; Pf Dd2", "value": 5.76},
      {"measurement": "pEC50", "setting": "[1]; Pf Dd2, 0.078 μM to 10 μM", "value": 5.76},
      {"measurement": "stage specific action on asexual blood stages (ring, trophozoite, schizont)", "setting": "[2]; treated at early ring, mid-trophozoite or mid-schizont", "value": "multi-stage active; also recorded: exhibits inhibitory activities against ring-to-trophozoite development, trophozoite-to-schizont development and schizont rupture"},
      {"measurement": "vacuolation in treated parasites", "setting": "[2]; Giemsa-stained thin smears", "value": "abnormal vacuolation; also recorded: induced vacuolation in parasites"},
      {"measurement": "neutral lipid bodies / vacuolar lipid uptake (Oil red O)", "setting": "[3]", "value": "devoid of neutral lipid bodies"}
    ]}
  ]
}
